In a melting point compilation (Tetko et al.):

melting point [°C]	Compound
102	O=[N+]([O-])c1cccc(C=Cc2ccccc2)c1
178 to 179	N#Cc1c(NC(=O)CN2CCOCC2)sc2c1CCCC2
71	O=[N+]([O-])c1ccc(Oc2ccccc2)c([N+](=O)[O-])c1
171	COc1ccc(/C=N/c2nc(C(F)(F)F)n[nH]2)cc1
257 to 258	O=Cc1c(-c2ccc(Cl)cc2)[nH]c2ccccc12
124 to 125	COC(=O)c1ccc(OC)c(C#N)c1
208	S=C(Nc1cccc2ccccc12)Nc1cccc2ccccc12
19	Clc1cc(Br)ccn1
92	COC(=O)c1cc(C)on1
-23	Cc1cccc2c1CCCC2
51	CCCCCCCCCCCCCCCC(=O)OCCO
150	O=C(/C=C/O)CCc1ccccc1
56	CC(=O)Oc1ccccc1/C=C/c1ccccc1
285 to 287	Cc1cc(C)c(C#N)c(O)n1
210 to 213	O=[N+]([O-])c1cc2nccnc2cc1Cl
200	O=C(Nc1cccc([N+](=O)[O-])c1)C(C(F)(F)F)C(F)(F)F
94.5	CC(C)NCCCC1(C(N)=O)c2ccccc2-c2ccccc21
146	CCCCc1cc2ccccc2c(OCCN(C)C)n1
-18	CCCCCC(=O)CC(C)=O
-140	C=COC(C)C
138	O/N=C(\Cc1ccccc1)c1ccc2c3c(cccc13)CC2
102	Nc1ccc(Oc2ccc(Cl)cc2)cc1
107 to 108	Cc1ccc(-c2ccc(S(=O)(=O)Cl)cc2)cc1

melting point [°C]	Compound
140 to 145	NC(=O)CC1(CC(=O)O)CCCCC1
82	COc1cccc(C(=O)C(=O)c2cccc(OC)c2)c1
285 to 288	CN(C)c1ccc(C=C2SC(=S)NC2=O)cc1
133 to 135	O=C(OC1OC(=O)c2ccccc21)c1ccccc1 (stereo not given)
251	Nc1ccc(S(=O)(=O)Nc2cnccn2)cc1
292	Cn1c(=O)c(C2=NNC(=O)C2=CNc2cccc3ccccc23)c(O)c2ccccc21
218	N#C/C(=N\Nc1ccc2ccccc2c1)c1nc(-c2ccc(Cl)cc2)cs1
101	O=C(O)Cc1cccc(Br)c1
159 to 160	COC(=O)c1ccc(N)nc1
-72.6	C=C(C)CC(C)=O
-68.3	CC(=O)C1CC1
32	N#CCc1cc(C(F)(F)F)ccc1Cl
104 to 107	OCCOc1ccc(OCCO)cc1
90 to 92	O=C(N=C=S)c1ccc([N+](=O)[O-])cc1
59 to 60	CCOC(=O)c1cc2cccnc2s1
203	CC(CCC(=O)O)C1CCC2C3C(O)CC4CC(O)CCC4(C)C3CCC12C (stereo not given)
193	CCOC(=O)c1cc2cc(C(F)(F)F)c(C(F)(F)F)cc2c(=O)o1
80	N#CCSc1ccc(Cl)cc1
< 25	C=CC(C)(CCC=C(C)C)OC(C)=O (stereo not given)
202	NCC(O)CC(=O)O (racemic)
-51	CC1Cc2ccccc2N1 (stereo not given)
223	O=C(O)/C(=C/c1ccc([N+](=O)[O-])cc1)c1ccccc1C(=O)O
240 to 243	COC(=O)c1sc(N(C)C)c(C#N)c1N

melting point [°C]	Compound
112	OCC#CC#CCO
24	Cc1ccc([N+](=O)[O-])c(Cl)c1
151	Cc1cc(/C=C/c2ccccc2N)c(N)cc1N
198	COC(=O)C=CC(C)=CC=CC(C)=CC=CC=C(C)C=CC=C(C)C=CC(=O)O
247 to 248	Cn1cncc1C(=O)O
17.5	CCOC(=O)C=CN(C)C
153	Nc1ccccc1-c1cc2ccccc2[nH]1
140	CC1(C)CC(C)(c2ccc(O)cc2)c2ccccc2O1 (stereo not given)
66	c1ccc(OCCOCCOc2ccccc2)cc1
193 to 195	COC(=O)c1sc(SC)c(S(=O)(=O)C(C)C)c1I
91	CCCCC(=O)OCN1C(=O)NC(c2ccccc2)(c2ccccc2)C1=O
57	Cc1ccc(C(c2ccc(C)o2)c2ccccc2Br)o1
> 300	C/C(=N\c1cccc2cccc(N)c12)c1c(O)c2ccccc2n(-c2ccccc2)c1=O
48 to 50	O=[N+]([O-])c1cc(C(F)(F)F)ccc1N1CCCCC1
-107	C=C1CCCCC1
160	O=C(O)CCc1nc(-c2ccccc2)c(-c2ccccc2)o1
270 to 295	NC(=O)CNCCS(=O)(=O)O
140	c1cnc2ncncc2n1
209 to 210	Cc1nc2scc(-c3ccccc3)c2c(=O)n1NC(=O)c1ccccc1Cl
107	Brc1cnc(N2CCCCC2)nc1OCc1ccccc1
190	O=[N+]([O-])c1ccc(N=Nc2ccc(N(CCO)CCO)cc2Cl)cc1
115 to 117	CNc1nnc(C(F)(F)F)s1
239	COC(=O)NN=Cc1c[n+]([O-])c2ccccc2[n+]1[O-]

melting point [°C]	Compound
101	NS(=O)(=O)c1ccc(SCCCCO)cc1
134 to 136	Brc1ccc(Oc2c(Br)cc(Br)cc2Br)cc1
243 to 245	Cn1ccc2c(C(=O)O)cccc21
173 to 174	Cn1nc(-c2cccs2)cc1C(=O)O
-31.7	CC(COc1ccc(C(C)(C)C)cc1)OS(=O)OCCCl (stereo not given)
118 to 119	Nc1cc(Cl)c(Cl)c(Cl)c1Cl
297 to 299	CC1=Nc2ccccc2Nc2c1c(=O)n(-c1ccccc1)c1ccccc21
-85	C1=CCC=C1
88	CC(=O)Nc1ccccc1C(=O)c1ccccc1
131 to 134	C[C@@H](OC(C)(C)C)[C@H](NC(=O)OCC1c2ccccc2-c2ccccc21)C(=O)O
69 to 70	C[C@]12C=C[C@H](O1)[C@H]1C(=O)OC(=O)[C@H]12
173	O=S(=O)(O)CCS(=O)(=O)O
8	CCCCCCCCCCCCCCCCC(C)CC (stereo not given)
210	O=C(c1ccc([N+](=O)[O-])cc1)c1noc(-c2ccc(Cl)cc2)c1S(=O)(=O)c1ccccc1
161	CC(C)(C)c1cc(C(=O)O)cc(C(C)(C)C)c1
86.5	CC(=O)OCC1OC(OC2(COC(C)=O)OC(COC(C)=O)C(OC(C)=O)C2OC(C)=O)C(OC(C)=O)C(OC(C)=O)C1OC(C)=O (stereo not given)
251 to 252	Cc1cc(=O)oc2[nH]nc(C)c12
112	O=C(CS)Nc1ccc2ccccc2c1
53 to 56	Cc1ccc(C#N)n1C
206	NNc1ccc([N+](=O)[O-])cn1
123 to 126	COC(=O)c1ccc2cc(Br)ccc2c1
141 to 143	C(=C\c1nn2c(COc3ccccc3)nnc2s1)/c1ccccc1
300	O=C(O)c1cc(O)[nH]c(=O)c1

melting point [°C]	Compound
60 to 62	COc1ccc(-c2nc(CCl)no2)cc1
129 to 134	O=S(=O)(SS(=O)(=O)c1ccccc1)c1ccccc1
62.5	CCc1cc2ccccc2c2ccccc12
119	O=C(O)C1=CCCC1
163	CCCCCNc1cc(=O)oc2ccccc12
102 to 103	O=Cc1c[nH]nc1-c1cccs1
179 to 182	O=c1cc(C(F)(F)F)c2ccc(O)cc2o1
149 to 153	CN(C)C(=S)NN
40 to 42	CSc1ccc(I)cc1
207	C(#Cc1ccc(/N=C/c2ccccc2)cc1)c1ccc(/N=C/c2ccccc2)cc1
197	O=C1c2ccccc2C(=O)N1c1ccc(Cl)cc1
-8	CCCCCCC(=O)CC
-22	Cc1ccc2ncccc2c1
82 to 84	CC(=O)CCc1ccc(O)cc1
157	Cc1cccc(N/N=C(/C#N)c2nc(-c3ccc(Cl)cc3)cs2)c1
227	Oc1ccc2ccncc2c1
204	CC(CO)(CO)CO
243 to 246	S=c1[nH]c2ncccc2o1
44	O=[N+]([O-])c1cc(C(F)(F)F)ccc1CCl
195	NCCCCCCC(=O)O
39 to 40	Cc1ccc(S(=O)(=O)OC(C(F)(F)F)C(F)(F)F)cc1
54 to 55	OCc1cccnc1Cl
14	COC(=O)c1ccc(C(F)(F)F)cc1

Compound	melting point [°C]
CCC(CO)NC(=O)C1C=C2c3cccc4[nH]cc(c34)CC2N(C)C1 (stereo not given)	172
CCC(C)C1(CC)C(=O)NC(=S)NC1=O (stereo not given)	169
CNC(=O)ON=C(C)SC	78
CC(=O)OCC(=O)C1CCC2C3CCC4CC(O)CCC4(C)C3C(=O)CC12C (stereo not given)	176
ClCc1ccc(Cl)c(Cl)c1	37.5
CN(C)CCc1c[nH]c2cccc(O)c12	174
CC=C(CC)C(=O)NC(N)=O	198
CNC(=O)Oc1cccc(C)c1	77.7
O=C=Nc1cccc(Cl)c1	-4
COC(=O)COc1ccc(Cl)cc1Cl	119
CCCCCF	-120
NC(Cc1ccc(N(CCCl)CCCl)cc1)C(=O)O (stereo not given)	182
CCC(N)C(O)c1ccccc1 (stereo not given)	79.5
CS(=O)(=O)CCCN=C=S	47.5
COc1ccc2c(c1)[nH]c1c(C)nccc12	273
COc1cccc(C2(O)CCCCC2CN(C)C)c1 (stereo not given)	180
CSc1nc(NC(C)C)nc(NC(C)C)n1	119
O=C(Cl)OCc1ccc([N+](=O)[O-])cc1	33
O=C(O)CCNC(=O)CCl	91 to 92
CCCC(=O)c1c(C)cc(C)c(C2CC(=O)C(C(CC)=NOCC)=C(O)C2)c1C (stereo not given)	80.8
